Source: US20040029865A1, “Bis-arylsulfones” (priority 2002, published 2004)

Legend:
Assay type in all cases: physicochemical
[1] = Dynamic moisture sorption gravimetry (DMSG); conditions: for Δ-Wt (%) DMSG: 0-90% RH: moisture sorption weight change; for moisture absorption (Δ-Wt(%) DMSG) relative to other salts: comparison with other salts
Protocol: Dynamic moisture sorption gravimetry (DMSG): DMSG isotherms were collected on the variable temperature controlled atmospheric microbalance, CAM. Approximately 10 mg samples were used in the balance, samples were run as received. The humidity was set at ambient conditions on the day analysis began. After the first scan with fast scan rate from ambient RH to 0% RH; the DMSG analysis followed with three more scans: 0% RH to 90% RH, 90% RH to 0% RH, 0% RH to 90% RH. The scan rate was 3% RH/step. The mass was measured every two minutes and an equilibrium window of 5 points within 0.001 mg. The RH was changed to the next value (+/−3% RH) when the mass of the sample was stable to within 1.0 μg. The Visual Basic program dmsgscn2.exe was used to control the data collection and export the information to an Excel spreadsheet.

[2] = Two-week solid-state stability at stressed conditions (high RH / high temperature), assessed by Powder-XRD; conditions: for Stability at high Temp (70° C.) / Stability at high RH (88%): two weeks, Powder-XRD; for Stability at high RH (88%): 88% RH; for physical stability at stressed conditions (high temperature and/or high humidity) relative to other salts: comparison with other salts
Protocol: X-ray Diffraction (XRD) Analysis: A Scintag X-2 theta/theta scanning diffractometer (Scintag Inc., Cupertino Calif.) was employed for the XRD data acquisition for this study. […] Major instrumental parameters are set as follows: 45 KV voltage, 40 mA current, divergent slit width of 2 mm, detector scatter slit width of 0.5 mm and receiving slit width of 0.3 mm. Each XRD pattern was scanned over the spectral range of 2-40° two-theta angle with a step scan algorithm with a step size of 0.03° two-theta angle/step. The raw XRD data, exported in ASCII format, is then converted to the binary format with Galactic's Grams software (Galactic Industries Corp., Salem N.H.) for data analysis, storage and output.

[3] = Conversion of crystal form II to form I upon stirring in aqueous or hot-ethanol
Excerpt: See results in Table 2 below.

Δ-Wt (%) DMSG: 0-90% RH [1]	Stability at high Temp (70° C.) [2]	Stability at high RH (88%) [2]	moisture absorption (Δ-Wt(%) DMSG) relative to other salts [1]	physical stability at stressed conditions (high temperature and/or high humidity) relative to other salts [2]	Compound	also measured
Deliquesced	Stable	Deliquesced			CC(=O)Nc1cc(N2CCCNCC2)ccc1S(=O)(=O)c1cccc(F)c1.CS(=O)(=O)O [Example 1, N-{5-(1,4-diazepan-1-yl)-2-[(3-fluorophenyl)sulfonyl]phenyl}acetamide Methanesulfonate]	
0.8%	Stable	Stable	lower moisture absorption	better physical stability	CC(=O)Nc1cc(N2CCCNCC2)ccc1S(=O)(=O)c1cccc(F)c1.Cl [Example 2, N-{5-(1,4-diazepan-1-yl)-2-[(3-fluorophenyl)sulfonyl]phenyl}acetamide Hydrochloride]	
0.8%	Stable	Stable	lower moisture absorption	better physical stability	CC(=O)Nc1cc(N2CCCNCC2)ccc1S(=O)(=O)c1cccc(F)c1.O=C(O)C(F)(F)F [Example 3, N-{5-(1,4-diazepan-1-yl)-2-[(3-fluorophenyl)sulfonyl]phenyl}acetamide Trifluoroacetate]	
0.7%	Stable	Stable			CC(=O)Nc1cc(N2CCCNCC2)ccc1S(=O)(=O)c1cccc(F)c1.O=C(O)/C=C\C(=O)O [Example 4, N-{5-(1,4-diazepan-1-yl)-2-[(3-fluorophenyl)sulfonyl]phenyl}acetamide Maleate, Crystal Form I]	thermodynamic preference between crystal forms [3]: thermodynamically favored relative to form II; Stability at high Temp (70° C.) ([2]; listed as form I): excellent physical stability; Stability at high RH (88%) ([2]; listed as form I): excellent physical stability
					CC(=O)Nc1cc(N2CCCNCC2)ccc1S(=O)(=O)c1cccc(F)c1.O=C(O)/C=C\C(=O)O [Example 5 (Form II), N-{5-(1,4-diazepan-1-yl)-2-[(3-fluorophenyl)sulfonyl]phenyl}acetamide maleate]	Δ-Wt (%) DMSG: 0-90% RH ([1]; maleate): 0.3%; Stability at high Temp (70° C.) ([2]; listed as form II, maleate): excellent physical stability; Stability at high Temp (70° C.) ([2]; maleate): Stable; Stability at high RH (88%) ([2]; listed as form II, maleate): excellent physical stability; Stability at high RH (88%) ([2]; maleate): Stable
2.5%	Stable	Unstable***			CC(=O)Nc1cc(N2CCCNCC2)ccc1S(=O)(=O)c1cccc(F)c1.O=C(O)CC(O)(CC(=O)O)C(=O)O [Example 6, N-{5-(1,4-diazepan-1-yl)-2-[(3-fluorophenyl)sulfonyl]phenyl}acetamide Hemi-citrate]	
1.9%	Stable	Stable	lower moisture absorption	better physical stability	CC(=O)Nc1cc(N2CCCNCC2)ccc1S(=O)(=O)c1cccc(F)c1.Cc1ccc(S(=O)(=O)O)cc1 [Example 8, N-{5-(1,4-diazepan-1-yl)-2-[(3-fluorophenyl)sulfonyl]phenyl}acetamide Tosylate]	
3.0%	Stable	Unstable**			CC(=O)Nc1cc(N2CCCNCC2)ccc1S(=O)(=O)c1cccc(F)c1.O=C(O)/C=C/C(=O)O [Example 9, N-{5-(1,4-diazepan-1-yl)-2-[(3-fluorophenyl)sulfonyl]phenyl}acetamide Hemi-fumarate]	
	Stable	Unstable**			CC(=O)Nc1cc(N2CCCNCC2)ccc1S(=O)(=O)c1cccc(F)c1 [Example 11, N-{5-(1,4-diazepan-1-yl)-2-[(3-fluorophenyl)sulfonyl]phenyl}acetamide Hemi-tartrate]	
			lower moisture absorption	better physical stability	CC(=O)Nc1cc(N2CCCNCC2)ccc1S(=O)(=O)c1cccc(F)c1.O=C(O)/C=C\C(=O)O [maleate, N-{5-(1,4-diazepan-1-yl)-2-[(3-fluorophenyl)sulfonyl]phenyl}acetamide maleate]	

Compound	Δ-Wt (%) DMSG: 0-90% RH [1]	Stability at high Temp (70° C.) [2]	Stability at high RH (88%) [2]	moisture absorption (Δ-Wt(%) DMSG) relative to other salts [1]	physical stability at stressed conditions (high temperature and/or high humidity) relative to other salts [2]	also measured
N-{5-(1,4-diazepan-1-yl)-2-[(3-fluorophenyl)sulfonyl]phenyl}acetamide Hemi-malate [Example 10]	1.5%	Unstable**	Stable			
N-{5-(1,4-diazepan-1-yl)-2-[(3-fluorophenyl)sulfonyl]phenyl}acetamide Hemi-succinate [Example 7]	5.0%	Unstable**	Unstable**			
